Reference: PubChem BioAssay (NCI)
Several values for one entry are separate records, joined by “and”; a condition that tells them apart may be missing. Equal values may be shown once.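 Compound exposure: 48 hours, 5 concentrations, 96-well plates. GI50 is the concentration that inhibits growth by half. The concentration for full growth arrest is given as TGI.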

Legend:
Assay in all cases: NCI anticancer screen, dose series, 48 h
[1] = system: U251 CNS
[2] = system: MALME-3M melanoma
[3] = system: HT29 colon
[4] = system: NCI-H460 lung
[5] = system: M14 melanoma
[6] = system: 786-0 renal
[7] = system: OVCAR-8 ovarian
[8] = system: EKVX NSCLC
[9] = system: CAKI-1 renal
[10] = system: UO-31 renal

CC(C)(O)[C@H]1[C@@H]2OC(=O)[C@H]1[C@]1(O)C[C@H]3OC34C(=O)O[C@H]2[C@@]41C (some centres undefined) (tested in a mixture with another compound) was tested, and the TGI [1] was > 100 µM, the TGI [2] was > 100 µM and the TGI [3] was > 100 µM. The TGI [4] was > 100 µM, the TGI [5] was > 100 µM and the TGI [6] was > 100 µM. The TGI [7] was > 100 µM, the TGI [8] was > 100 µM and the TGI [9] was > 100 µM. The TGI [10] was > 100 µM.

In the case of Cc1ccc(C(=O)NC2CCCCC2)cc1-c1ccc(C(=O)NCC2CC2)cc1, the GI50 [1] is reported as > 25 µM, the TGI [1] is reported as > 25 µM and the GI50 [2] is reported as > 25 µM. The TGI [2] was > 25 µM, the GI50 [3] was > 25 µM and the TGI [3] was > 25 µM. For the same compound, the GI50 [4] was 16.8 µM, the TGI [4] was > 25 µM and the GI50 [5] was > 25 µM. The TGI [5] was > 25 µM, the GI50 [6] was > 25 µM and the TGI [6] was > 25 µM. The GI50 [7] was > 25 µM, the TGI [7] was > 25 µM and the GI50 [8] was > 19.4 µM. The TGI [8] was > 25 µM, the GI50 [9] was 24.9 µM and the TGI [9] was > 25 µM. For the same compound, the GI50 [10] was > 19.9 µM and the TGI [10] was > 25 µM.

For O=C(/C=C/c1ccccc1)CCC1C(=O)NC(=O)NC1=O, the TGI [1] was > 100 µM, the TGI [2] was > 100 µM and the TGI [3] was > 100 µM. For the same compound, the TGI [4] was > 100 µM, the TGI [5] was > 100 µM and the TGI [6] was > 100 µM. The TGI [7] was > 100 µM, the TGI [8] was > 100 µM and the TGI [9] was > 100 µM. For the same compound, the TGI [10] was > 100 µM.

With O=C(O)CCC1CCC(c2cc(F)ccc2F)(S(=O)(=O)c2ccc(Cl)cc2)CC1 (centres undefined) the GI50 [1] was 32.7 µM and > 100 µM, the TGI [1] was > 100 µM and the GI50 [2] was 10.2 µM and > 100 µM. For the same compound, the TGI [2] was 96.4 µM and > 100 µM, the GI50 [3] was 30.3 µM and > 100 µM and the TGI [3] was > 100 µM. The GI50 [4] was 42.5 µM and > 100 µM, the TGI [4] was > 100 µM and the GI50 [5] was 15.9 µM and > 100 µM. For the same compound, the TGI [5] was 52.5 µM and > 100 µM, the GI50 [6] was 23.8 µM and > 100 µM and the TGI [6] was > 100 µM. For the same compound, the GI50 [7] was 74.8 µM and > 100 µM, the TGI [7] was > 100 µM and the GI50 [8] was 15.1 µM and > 68.5 µM. For the same compound, the TGI [8] was > 100 µM, the TGI [9] was 45.1 µM and > 100 µM and the GI50 [10] was 22.7 µM and > 100 µM. For the same compound, the TGI [10] was > 100 µM.

With COC(=O)N/N=C(\C)C(CN1CCOCC1)C(c1ccccc1)c1cc2ccccc2oc1=O (centres undefined) the TGI [1] was > 100 µM, the TGI [2] was > 100 µM and the TGI [3] was > 100 µM. The TGI [4] was > 100 µM, the TGI [5] was > 100 µM and the TGI [6] was > 100 µM. For the same compound, the TGI [7] was > 100 µM, the TGI [8] was > 100 µM and the TGI [9] was > 100 µM. The TGI [10] was > 100 µM.

For CCCCCCCCCC(=O)OCC1OC(n2cc(F)c(=O)[nH]c2=O)C(N)C(OC(=O)CCCCCCCCC)C1O (centres undefined), the TGI [1] was 32.3 µM, the TGI [2] was 35.2 µM and the TGI [3] was 35.8 µM. It also gave a TGI [4] of 40.5 µM, a TGI [5] of 34.3 µM and a TGI [6] of 32.9 µM. For the same compound, the TGI [7] was 34.6 µM, the TGI [8] was 34.1 µM and the TGI [9] was > 100 µM. It also gave a TGI [10] of 54.9 µM.

With CNC(=O)CN(CC(N)=O)C(=O)NC the TGI [1] was > 100 µM, the TGI [2] was > 100 µM and the TGI [3] was > 100 µM. The TGI [4] was > 100 µM, the TGI [5] was > 100 µM and the TGI [6] was > 100 µM. For the same compound, the TGI [7] was > 100 µM, the TGI [8] was > 100 µM and the TGI [9] was > 100 µM. The TGI [10] was > 100 µM.

Compound CC1(C)C2CCC13C(=O)C1OC3(C2)C2C(=O)c3c(O)ccc(O)c3C(=O)C12 (centres undefined) has a GI50 [1] of 44.4 µM, a TGI [1] of 96.9 µM and a GI50 [2] of 18.3 µM. For the same compound, the TGI [2] was 50.6 µM, the GI50 [3] was 34.1 µM and the TGI [3] was > 83.4 µM. The GI50 [4] was 36.8 µM, the TGI [4] was > 100 µM and the GI50 [5] was 14.1 µM. It also gave a TGI [5] of 29.2 µM, a GI50 [6] of 10.5 µM and a TGI [6] of 24.7 µM. For the same compound, the GI50 [7] was 47.2 µM, the TGI [7] was > 93.9 µM and the GI50 [8] was > 100 µM. The TGI [8] was > 100 µM, the GI50 [9] was 4.31 µM and the TGI [9] was 18.1 µM. For the same compound, the GI50 [10] was 40.5 µM and the TGI [10] was > 100 µM.

For CN1CCN(Cc2ccc(NC(=O)c3cncc(C#Cc4c(N)ncc5cc(F)ccc45)c3)cc2C(F)(F)F)CC1, the GI50 [1] was 1.04 µM, the TGI [1] was 2.27 µM and the GI50 [2] was 0.36 µM. The TGI [2] was 1.14 µM, the GI50 [3] was 0.276 µM and the TGI [3] was 1.15 µM. The GI50 [4] was 0.904 µM, the TGI [4] was 1.9 µM and the GI50 [5] was 0.378 µM. For the same compound, the TGI [5] was 1.11 µM, the GI50 [6] was 0.892 µM and the TGI [6] was 1.63 µM. The GI50 [7] was 1.27 µM, the TGI [7] was 3.57 µM and the GI50 [8] was 2.8 µM. For the same compound, the TGI [8] was 10.2 µM, the GI50 [9] was 3.3 µM and the TGI [9] was 10.1 µM. For the same compound, the GI50 [10] was 1.44 µM and the TGI [10] was 5.06 µM.

With O=S1c2ccc(Cl)cc2CC(SSC2Cc3cc(Cl)ccc3S(=O)c3ccccc32)c2ccccc21 (centres undefined) the TGI [1] was > 100 µM, the TGI [2] was > 100 µM and the TGI [3] was > 100 µM. For the same compound, the TGI [4] was > 100 µM, the TGI [5] was > 100 µM and the TGI [6] was > 100 µM. For the same compound, the TGI [7] was > 100 µM, the TGI [8] was > 100 µM and the TGI [9] was > 100 µM. For the same compound, the TGI [10] was > 100 µM.

O=C1/C(=C/c2ccc(Cl)cc2)CN(C(=O)C(Cl)Cl)C/C1=C\c1ccc(Cl)cc1 showed a GI50 [1] of 0.052 µM, a TGI [1] of 0.186 µM and a GI50 [2] of 0.23 µM. It also gave a TGI [2] of 0.759 µM, a GI50 [3] of 0.0714 µM and a TGI [3] of 1.43 µM. It also gave a GI50 [4] of 0.274 µM, a TGI [4] of 0.822 µM and a GI50 [5] of 0.242 µM. For the same compound, the TGI [5] was 0.749 µM, the GI50 [6] was 0.183 µM and the TGI [6] was 0.371 µM. The GI50 [7] was 0.22 µM, the TGI [7] was 1.44 µM and the GI50 [8] was 0.292 µM. For the same compound, the TGI [8] was 1.03 µM, the GI50 [9] was 0.264 µM and the TGI [9] was 0.865 µM. It also gave a GI50 [10] of 0.156 µM and a TGI [10] of 0.3 µM.

For CCCC(=O)NNc1[nH]c(-c2ccc(OC)cc2)cc1C(=O)OCC, the GI50 [1] was 29.5 µM, the TGI [1] was > 100 µM and the GI50 [2] was 14.5 µM. For the same compound, the TGI [2] was 29.2 µM, the GI50 [3] was 17.4 µM and the TGI [3] was 34.3 µM. The GI50 [4] was 46.6 µM, the TGI [4] was > 100 µM and the GI50 [5] was 20.4 µM. The TGI [5] was 39.7 µM, the GI50 [6] was 20.1 µM and the TGI [6] was 34.9 µM. For the same compound, the GI50 [7] was 17.8 µM, the TGI [7] was 48.3 µM and the GI50 [8] was 16.9 µM. It also gave a TGI [8] of 32.7 µM, a GI50 [9] of 12.5 µM and a TGI [9] of 25.7 µM. The GI50 [10] was 19.9 µM and the TGI [10] was 37.8 µM.
